Source: ChEMBL document CHEMBL1131641, “Indolequinone antitumor agents: relationship between quinone structure and rate of metabolism by recombinant human NQO1” (Bioorg Med Chem Lett, 1998)

Assays:
Homo sapiens = species on record: Homo sapiens; experiment: Metabolism (NADH oxidation) by recombinant human NAD(P)H: quinone oxidoreductase (NQO1) is evaluated.; format: ADME
[1] = Selectivity ratio against NSCLC H460 and NSCLC H596 was evaluated; format: functional; design: reference not given here
NCI-H460 = experiment: Cytotoxic activity against non-small cell lung cancer cell line (NSCLC) H460 was determined by using MTT colorimetric assay.; format: functional, cell-based; settings: Homo sapiens
NCI-H596 = experiment: Cytotoxic activity against non-small cell lung cancer cell line (NSCLC) H596 was determined by using MTT colorimetric assay.; format: functional, cell-based; settings: Homo sapiens

Metabolism (Homo sapiens)	Compound	Selectivity ratio [1]	IC50 (NCI-H460)	IC50 (NCI-H596)
5.31 µM/min/mg	COC1=CC(=O)c2c(cc(C)n2C)C1=O	1		
0.46 µM/min/mg	Cc1c(CO)c2c(n1C)C(=O)C=C(N(C)C)C2=O			
0.1 µM/min/mg	COCC/N=C1\C=C(O)c2c(c(CO)c(C)n2C)C1=O			
0.69 µM/min/mg	Cc1c(CO)c2c(n1C)C(=O)C=C(N1CCOCC1)C2=O			
0.22 µM/min/mg	Cc1c(CO)c2c(n1C)C(=O)C=C(N1CCC1)C2=O			
14.3 µM/min/mg	CCOC(=O)c1c2c(n(C)c1C)C(=O)C=C(OC)C2=O			
8.78 µM/min/mg	COC1=CC(=O)c2c(c(C=O)c(C)n2C)C1=O			

The remaining lines, values behind:

Compound	Metabolism (Homo sapiens)	Selectivity ratio [1]	IC50 (NCI-H460)	IC50 (NCI-H596)
Cc1cc2c(n1C)C(=O)C=C(N1CC1)C2=O	11.6 µM/min/mg	> 26		
Cc1c(CO)c2c(n1C)C(=O)C=C(N1CC1)C2=O	3.35 µM/min/mg	510		
Cc1c(COC(N)=O)c2c(n1C)C(=O)C=C(N1CC1)C2=O		1.6		
C/N=C1\C=C(O)c2c(c(CO)c(C)n2C)C1=O	0.49 µM/min/mg			
COC1=CC(=O)c2c(c(CO)c(C)n2C)C1=O	1.25 µM/min/mg	1		
COC1=CC(=O)c2c(c(COC(N)=O)c(C)n2C)C1=O		0.3		
Cc1c(CO)c2c(n1C)C(=O)C=C(CN1CC1)C2=O	2.01 µM/min/mg	> 220	110 nM	> 25000 nM
